Measured values published in ChEMBL document CHEMBL3046904, “Synthesis, characterization, bioactivity, and POM analyses of isothiochromeno[3,4-e][1,2]oxazines” (2013).

Legend:
Assay type in all cases: functional
MCF7 = assay: Cytotoxicity against Homo sapiens (human) MCF7 assessed as cell growth at 10^-4 M after 48 hr by Alamar Blue assay; conditions: MCF7, 48 h, read-out: Activity
SF-268 = assay: Cytotoxicity against Homo sapiens (human) SF268 assessed as cell growth at 10^-4 M after 48 hr by Alamar Blue assay; conditions: SF-268, 48 h, read-out: Activity
NCI-H460 = assay: Cytotoxicity against Homo sapiens (human) NCI-H460 assessed as cell growth at 10^-4 M after 48 hr by Alamar Blue assay; conditions: NCI-H460, 48 h, read-out: Activity

Q: What does the source list for `COc1ccc(C2=C3SC=c4ccccc4=C3ON=C2c2ccc(Cl)cc2)cc1`?
A: growth at 100 µM (MCF7): 51%; growth at 100 µM (SF-268): 102%; growth at 100 µM (NCI-H460): 85%

Q: How did the growth at 100 µM (MCF7) turn out when `O=[N+]([O-])c1ccc(C2=C3SC=c4ccccc4=C3ON=C2c2ccc(Cl)cc2)cc1` was run?
A: The growth at 100 µM was 85%.

Q: What about the growth at 100 µM (SF-268) of the same compound?
A: Its growth at 100 µM is 104%.

Q: And the growth at 100 µM (NCI-H460)?
A: The growth at 100 µM was 97%.
